Entries after “also recorded” stand apart in the source; their conditions may differ.
Key:
panelists [1] = experiment: Quantitative sensory evaluation test of kokumi-imparting activity; type: in vivo, human
Method: This quantitative sensory evaluation test was carried out as follows: The strength of the kokumi-imparting activity was measured for the cases where the test compound was mixed at concentrations of 0.001 to 0.5 g/dL with distilled water containing sodium glutamate (0.05 g/dL), inosine monophosphate (0.05 g/dL), and sodium chloride (0.5 g/dL). After the test compound was dissolved, samples more acidic than a control with no added test compound were adjusted, before further use, with NaOH to have a pH in a range of ±0.2 from the pH of the control with no added test compound. The sensory evaluation scores were as follows: control: 0 points; strong: 3 points; very strong: 5 points. The sensory evaluation was carried out using n (the number of panelists)=4. Moreover, to clarify the scale, the initial taste and the middle/after taste of γ-[…] at 0.001 g/dL were both set as 3.0 points. The term “middle/after taste” refers to the taste perceived during the period which includes the middle taste and the after taste. For the scoring, a linear scale method was employed. In this method, the score was marked as a position on a straight line showing positions for scores ranging from -5 0 5.

panelists [2] = experiment: Quantitative sensory evaluation test of salty taste enhancement; type: in vivo, human
Method: After the test compound was dissolved, samples more acidic than a control containing no added test compound were adjusted, before further use, with NaOH to have a pH in a range of ±0.2 from the pH of the control to which no test compound was added.
The sensory evaluation scores were as follows, the control to which no test compound was added, i.e. a 0.5 g/dL sodium chloride solution: 0 points; a 0.75 g/dL sodium chloride solution: 5 points. The sensory evaluation was conducted on a scale ranging from −5 to 0 to 5, with n=5. The “initial taste” refers to the taste perceived by each panelist from the start of eating the sample to 2 seconds thereafter, while the term “middle/after taste” refers to that perceived by each panelist from 2 seconds on and after eating the same, i.e. perceived during the period including both the middle taste and the after taste. For the scoring, a linear scale method was used. In this method, the score was marked as a position on a straight line showing positions for scores ranging from −5˜0˜5. The panelists were persons who were engaged in the development of seasonings for foods for one year or longer in total, and who were capable of determining that the difference in the potency between γ-Glu-Cys-Gly and γ-Glu-Val-Gly each added to a umami taste and salty taste solution was around 10 times, while confirming the ability of these persons at regular intervals.

human CaSR = target: T1, human CaSR (Homo sapiens, UniProt P41180, E1011Q); experiment: Evaluation of CaSR agonist activity (Ca2+ fluorescence, EC50); type: cell-based; conditions: comparison with other dipeptides
T1 construct: expressed in transfected cells; host or cells: 293E cells (EBNA1-expressing HEK293 cells, ATCC No. CRL-10852), transient transfection with Fugene6
T1 sequence (P41180 20-1078 E1011Q): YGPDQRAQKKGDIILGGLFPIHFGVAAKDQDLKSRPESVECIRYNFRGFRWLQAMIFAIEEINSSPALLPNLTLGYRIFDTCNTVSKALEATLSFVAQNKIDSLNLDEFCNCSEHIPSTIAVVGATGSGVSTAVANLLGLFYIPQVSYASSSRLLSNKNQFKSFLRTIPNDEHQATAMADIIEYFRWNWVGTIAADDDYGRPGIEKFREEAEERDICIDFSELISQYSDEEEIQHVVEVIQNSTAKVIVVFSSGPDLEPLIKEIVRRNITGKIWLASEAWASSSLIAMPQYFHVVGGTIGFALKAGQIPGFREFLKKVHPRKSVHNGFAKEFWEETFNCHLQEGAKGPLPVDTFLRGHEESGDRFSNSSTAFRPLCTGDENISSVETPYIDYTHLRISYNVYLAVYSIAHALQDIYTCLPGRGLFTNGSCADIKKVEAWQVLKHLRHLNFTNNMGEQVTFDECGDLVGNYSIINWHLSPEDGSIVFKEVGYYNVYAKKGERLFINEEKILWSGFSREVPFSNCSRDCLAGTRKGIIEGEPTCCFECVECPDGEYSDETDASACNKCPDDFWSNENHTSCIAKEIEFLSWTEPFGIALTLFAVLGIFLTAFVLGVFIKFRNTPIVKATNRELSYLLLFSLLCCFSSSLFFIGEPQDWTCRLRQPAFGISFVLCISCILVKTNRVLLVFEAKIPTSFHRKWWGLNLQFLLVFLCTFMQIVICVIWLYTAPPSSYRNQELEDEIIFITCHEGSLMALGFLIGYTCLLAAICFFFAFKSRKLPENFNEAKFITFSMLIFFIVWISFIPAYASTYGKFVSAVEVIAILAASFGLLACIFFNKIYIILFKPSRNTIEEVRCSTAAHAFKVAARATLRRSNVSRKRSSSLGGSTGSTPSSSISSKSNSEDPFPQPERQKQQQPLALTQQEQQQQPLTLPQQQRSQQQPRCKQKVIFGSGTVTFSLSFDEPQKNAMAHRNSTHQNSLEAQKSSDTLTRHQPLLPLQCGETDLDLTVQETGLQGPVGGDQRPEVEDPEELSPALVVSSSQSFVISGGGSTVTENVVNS
Method: The cells were seeded into a F25 flask at 3×10^6 cells/10 mL, and allowed to stand in a CO2 incubator (5% CO2, 37° C.) for 24 hours. Then, the cells were transfected with the human CaSR-expression plasmid hCaSR/pcDNA3.1 by using a transfection reagent Fugene6 (available from Roche Company). The cells were placed in a CO2 incubator for 6 to 7 hours, and then the cells were harvested by using DMEM/Ham's-F12 containing 10% fetal calf serum. Then, the cells were seeded into a poly-D-lysine-coated 96-well plate (BD-Biocoat) at 70,000 cells/well.
The plate was allowed to stand over 24 hours in a CO2 incubator, and then the culture medium was removed from the 96-well plate into which the cells were seeded. […] Then, the indicator was incorporated into the cells by allowing the plate to stand at 37° C. for one hour, and then at room temperature for 10 minutes.
Method for the Determination of EC50:
The differences between the maximum value and minimum value of the fluorescent intensity (RFU (Max-Min)) were determined by automatic calculation of FLEX Station before and after the addition of the compound. The percentage of activities was calculated, with the RFU (Max-Min) at the time when the maximum concentration of the compound added was defined to be 100%, and the RFU (Max-Min) at the time when the 0.1% BSA-containing assay buffer containing no test compound was defined to be 0%.

[3] = Stability (statement only); type: physicochemical; conditions: compared with γ-Glu-Cys
panelists [4] = experiment: Sensory evaluation of salty taste in low salt chicken stock, use in combination with an organic acid; type: in vivo, human; conditions: γ-Glu-Abu 0.0040 g/dL in low salt chicken stock (salt 0.48 g/dL); control = 3, 1.25x salt = 4, 1.5x salt = 5; n=6
Method: The sensory evaluation tests were carried out as follows. […] A test compound in an appropriate amount was dissolved in the solution, and the salty taste strength was measured. No pH adjustment is necessary, such as the lowering of the pH, because there is no difference in pH between the solution after dissolving each test compound and the control without any added compound. […] To clarify the scale, the sensory evaluation scores were set as follows: the salty taste of the control: 3 points; the salty taste of a soup with increased salt concentration by 1.25 times as compared to that of control: 4 points; and the salty taste of a soup with increased salt concentration by 1.5 times as compared to that of the control: 5 points. The sensory evaluation was carried out using a panel of n (the number of panelists)=6. For the scoring a linear scale method was used. In this method, the score was marked as a position on a straight line showing positions for scores ranging from 1 3 5. The panelists used in this test were persons who had been engaged in the development of seasonings for foods for at least one year or longer in total, and who were capable of determining that the difference in potency between γ-[…] and γ-[…] each added to an umami and salty taste solution was around 10 times, while confirming the ability of these persons at regular intervals.

[5] = 0.005 g/dL in water with MSG 0.05, IMP 0.05, NaCl 0.5 g/dL, scale -5~0~5, n=4
[6] = 0.004 g/dL in 0.5 g/dL NaCl, 0.5 g/dL NaCl = 0, 0.75 g/dL NaCl = 5, n=5

CC[C@H](NC(=O)CC[C@H](N)C(=O)O)C(=O)O
Strength of Kokumi Impartment, Initial Taste (panelists [1]; [5]): 3.8 points
Strength of Kokumi Impartment, Middle/After Taste (panelists [1]; [5]): 3.2 points
Kokumi-imparting potency (in words) (panelists [1]; in vivo): extremely high potency; also recorded: excellent kokumi-imparting activity
Sensory Evaluation Profile (salty taste) (panelists [2]; 0.004 g/dL in 0.5 g/dL NaCl): The salty taste was enhanced
Strength of Salty Taste Impartment, Initial Taste (panelists [2]; [6]): 1.6 points
Strength of Salty Taste Impartment, Middle/After Taste (panelists [2]; [6]): 1.5 points
Salty taste enhancement ability (in words) (panelists [2]; comparison of γ-Glu-Val-Gly and γ-Glu-Abu): extremely well balanced salty taste enhancement
CaSR effect and activity (in words) (human CaSR): strong CaSR effect and activity comparable to that of γ-Glu-Cys
Stability (in words) [3]: excellent in stability
Str. of Salty Taste (score) (panelists [4]): 3.56 score

— patent publication US9844226B2 (AJINOMOTO CO., INC., priority 2009, dated 2017)
